# Test results as given in BindingDB's records for patent US9365558 (Bristol Myers Squibb, 2016).
# Biological target: 2-acylglycerol O-acyltransferase 2 (Homo sapiens, UniProt Q3SYC2)
# Assay: LCMS Assay
# Conditions: pH 7.4; 65 °C
# Method: The MGAT enzyme reactions were performed in Corning FALCON® 96-well Polypropylene plates, in a total volume of 60 μL of 50 mM Potassium Phosphate buffer pH 7.4, containing a final concentration of 100 μM 2-oleoylglycerol, 15 μM oleoyl-Coenzyme A and 0.0013 μg/μL Human or Mouse MGAT-2 or 0.0026 μg/μL Rat recombinant MGAT-2 membranes expressed in Sf9 cells. Assay plates were run through a fully automated robotics system and shaken for 5 seconds every minute for a total 10 minutes. The reactions were then quenched with 120 μL of ice cold methanol containing 1 μg/mL 1,2-distearoyl-rac-glycerol as the internal standard. Plates were shaken for 2 minutes and spun down to remove protein precipitation. After the spin, samples were transferred to LC/MS compatible PCR plates. For LC/MS analysis, a ThermoFisher Surveyor pump, utilizing a Waters Symmetry C8, 50×2.1 mm column, was used for the chromatography of enzyme products. The buffer system consists of 0.1% formic acid in water with a mobile phase consisting 0.1% formic acid in methanol. The shallow gradient is 90-100% mobile phase in 0.2 min with a total run time of 2.3 min. The first 0.5 minutes of each injection was diverted to waste to eliminate the presence of Phosphate buffer in the enzymatic reaction. The column was run at 0.6 mL/min and a temperature of 65° C.
# Sequence of 2-acylglycerol O-acyltransferase 2 (Q3SYC2 whole entry): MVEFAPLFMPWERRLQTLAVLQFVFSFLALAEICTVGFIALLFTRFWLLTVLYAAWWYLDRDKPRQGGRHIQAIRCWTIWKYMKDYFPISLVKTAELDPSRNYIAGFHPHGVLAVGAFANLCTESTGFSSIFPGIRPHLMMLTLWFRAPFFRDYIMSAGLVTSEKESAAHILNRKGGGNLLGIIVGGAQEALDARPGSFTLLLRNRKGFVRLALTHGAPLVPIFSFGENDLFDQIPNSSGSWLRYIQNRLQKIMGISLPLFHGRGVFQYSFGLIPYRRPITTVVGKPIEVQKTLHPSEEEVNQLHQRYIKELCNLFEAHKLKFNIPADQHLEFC
row,IC50,SMILES
1,38 nM,"Cc1ccc(C2=C(C(=O)NS(=O)(=O)N(C)C)C(=O)N[C@@](c3ccc(OCCCC(F)(F)F)cc3)(C(F)(F)F)C2)cc1 [US9365558, 31]"
2,40 nM,"CC(C)(C)n1ccc(C2=C(C(=O)NS(=O)(=O)C3CC3)C(=O)N[C@@](c3ccc(OCCCCCC(F)(F)F)cc3)(C(F)(F)F)C2)n1 [US9365558, 80]"
